The subject of assay [1] is Culex pipiens quinquefasciatus. The experiment in a line: Mosquito engorgement test on treated shaved guinea pigs, Culex pipiens quinquefasciatus. The assay is classed as in vivo. An excerpt: The tests were undertaken using experimental cages, which were composed of a plastic frame having the dimensions 29×29×29 cm. A sleeve of mosquito netting was placed over the cage. The sleeves of the netting were closed with rubber bands thus preventing light from entering the cages.
In each cage the mosquitoes had at their disposition a little water placed in a jar.
The mosquitoes that were used in this experiment were Culex pipiens quinquefasciatus. In each cage 50 female mosquitoes were introduced.
The day before the test 50 […] female mosquitoes were introduced into their experimental cage. The mosquitoes were deprived of a source of sugar at least twelve hours before the test.
The mosquitoes were collected by suction on the walls of the experimental cage with a mouth vacuum that was connected to a suction pump. To avoid errors, the mosquitoes were removed and introduced in lots of five. The sex was determined by observation of their antennas, since the male's antennas are more feathery.
Once the mouth vacuum was empty in the experimental cage the health of the mosquitoes was verified. To be used in the experiment, the mosquitoes had to be able to fly. Before the test the dead mosquitoes or those mosquitoes that could not fly were replaced with healthy ones.
Prior to starting the experiment the mosquitoes were tested to determine if the mosquitoes were ready to bite. This was verified by introducing a hand washed with soap and without any smell in the experimental cage. If more than three mosquitoes posed on the hand voluntarily within a delay of 30 seconds, then it was deemed that the mosquitoes were ready to bite. The hand was withdrawn when the three mosquitoes posed on it or when the 30 second time period was up. This test was repeated every minute for a maximum of 5 minutes, until a positive result was obtained. If no positive result was obtained the experiment was postponed.
A herd of guinea pigs males and females aging from 4 months to 3 years were used in the experiments. The guinea pig was anesthetized by injecting 1 mg/kg (live weight) of Zoletil® 20 in the thigh. A thin layer of Ocryl® gel was placed on the eyes of the guinea pigs.
The abdominal zone of the guinea pigs were carefully shaved from the teats to the base of the thorax. The area that was shaved was 8 cm from the base of the thorax to the teats by 6 cm from left to right of the guinea pig. This was done using a transparent template.
After shaking the sprayer containing the insect bite inhibiting semiochemical, each guinea pig was sprayed 3 times (0.5 ml total) in the center of the shaved region. After the first administration, the product was spread with the little finger, in which the hand is covered by a vinyl glove, towards the teats. After the second administration by spraying the product was spread with the gloved little finger towards the thorax. After the third administration by spraying the product was spread over the entire shaved surface. The product was permitted to dry for a period of five minutes.
At the bottom of the experimental cage a transparent sheet was placed in which a rectangle of 7 cm by 5 cm was cut in the center. Another cover sheet cut with the same dimensions as the transparent sheet was made and the two rectangles were superimposed on one another and stapled together with 8 staples.
The shaved zone of the guinea pig was centered over the rectangular transparent sheet and the guinea pigs were exposed to the mosquitoes for 30 minutes. See, FIGS. 2 and 3.
At the end of 30 minutes, the mosquitoes were recovered by mouth vacuum. They were then enclosed in a plastic bag that contained a paper soaked with ethyl acetate. After 3 minutes the mosquitoes were aligned on a strip of scotch tape that was labeled with the number of the experiment, the date, the name of the guinea pig in the experiment and the treatment that was applied.
Each treatment was tested with a control.

Assay [2] relates to Culex pipiens quinquefasciatus. In words: Mosquito engorgement test on treated cats, Culex pipiens quinquefasciatus. Conditions: cat. The assay is classed as in vivo. The method, then:
Other tests were performed on guinea pigs and cats using combinations of D, which is 3-cyclopentyl propanoic acid, F, which is 3-cyclohexyl propanoic acid, X, which is 3-cyclohexyl 2-methyl propanoic acid and W, which is 3-cyclopentyl 2-methyl propanoic acid.
The same experiment was conducted in the same manner as in Example 4 using guinea pigs, chickens and cats. The mosquitoes used in this experiment were Culex sp, Aedes sp and Anopheles.
The procedure that was followed was that in Example 4, except that cats (Felis domesticus) were tested instead of guinea pigs. The mosquitoes that were used in this experiement were Culex pipiens quinquefasciatus and Aedes aegypti.

In a further assay the test system is insects. The settings on record: cited from earlier work.
Where [3] appears, read: guinea pig, dose 31 μg/cm^2 (Table 7).
Where [4] appears, read: guinea pig, solution 0.3%, dose 31 μg/cm^2, 30 min exposure.
Setting [5] is: guinea pig, solution 0.3%, dose 33 μg/cm^2, 30 min exposure.
The mark [6] stands for this setting: solution 3.0%, dose 324 μg/cm^2, 30 min exposure.
[7] abbreviates: guinea pig, solution 3.0%, dose 31 μg/cm^2, 30 min exposure.
The mark [8] stands for this setting: guinea pig, solution 0.1%, dose not given, 30 min exposure.

Several values for one entry are separate records, joined by “and”; a condition that tells them apart may be missing. Identical values can stand only once. Like-named read-outs stand apart in the source and are kept apart here.

In the case of “methylated cyclohexyl acetic acid [methylated CHA]”, the “% efficacy” value in assay [1] (setting [3]) worked out at 77%.

In the case of `O=C(O)CCC1CCCC1` [3-CPP, 3-cyclopentyl propionic acid], the “% efficacy” value was 100% in assay [2] (3.0%, dose 314 μg/cm^2); 94% and 100% in assay [2] (dose 32 μg/cm^2); 100% in assay [2] (dose 324 μg/cm^2); 94% and 85% and 91% and 82% in assay [1] (setting [4]); 100% in assay [1] (setting [5]); 100% in assay [1] (setting [6]). In assay [2] (3.0%, dose 314 μg/cm^2), the “Number of bites of the solution used” value is on record as 0%. The “% bites tested” value was 4% and 5% and 1% and 11% in assay [1] (setting [4]); 0% in assay [1] (setting [5]); 0% in assay [1] (setting [6]).

Consider `CC(C)=CCC/C(C)=C/CO` [geraniol, reference compound], for which the “% bites tested” value in assay [1] (setting [4]) is on record as 25%; in assay [1] (setting [7]), 0%. The “% efficacy” value in assay [1] (setting [4]) amounted to 58%; in assay [1] (setting [7]), 100%.

On to `CC12CCC(CC1)C(C)(C)O2` [eucalyptol, reference compound], for which, in assay [1] (setting [4]), the “% bites tested” value worked out at 43% and the “% efficacy” value was −14%.

With `O=C(O)CC1CCCCC1` [CHA, cyclohexyl acetic acid], in assay [1] (setting [4]), the “% bites tested” value is 8% and the “% efficacy” value is given as 86%.

With `CC(CC1CCCCC1)C(=O)O` (stereo not shown) [methylated 3-CHP, 3-cyclohexyl 2-methyl propanoic acid], the “% efficacy” value in assay [1] (setting [3]) stood at 67%.

Turning to `C=C(C)[C@H]1CC=C(C)CC1` [limonene, reference compound], in assay [1] (setting [4]), the “% bites tested” value is recorded as 58% and the “% efficacy” value was −19%.

Take `CCN(CC)C(=O)c1cccc(C)c1` [DEET, N,N-diethyl-meta-toluamide]: the protection time result in the assay with insects (encapsulated DEET) was “up to 10 hours”; in the assay with insects (product containing 4.75% of DEET) it was “one and a half”; in the assay on insects (product containing 23.8% of DEET) it was “five”.

As for `Cc1ncc(CO)c(CO)c1O` [Vit. B6, reference compound], in assay [1] (setting [8]), the “% bites tested” value came out at 87% and the “% efficacy” value is −19%.

For the compound pinene [reference compound], in assay [1] (setting [4]), the “% bites tested” value was found to be 23% and the “% efficacy” value is on record as 30%.

As to `Cc1ncc(C[n+]2csc(CCO)c2C)c(N)n1` [Vit. B1, reference compound], in assay [1] (setting [8]), the “% bites tested” value is reported as 93% and the “% efficacy” value is on record as 2%.

For `CC1=CC[C@@H](C(C)(C)O)CC1` [alpha terpineol, reference compound], in assay [1] (setting [4]), the “% bites tested” value is given as 32% and the “% efficacy” value stood at 48%.

For `CC(CC1CCCC1)C(=O)O` (stereo not shown) [methylated 3-CPP, 3-cyclopentyl 2-methyl propanoic acid], in assay [1] (setting [3]), the “% efficacy” value is 89%.

The record behind these values is patent US20180049433A1, “SEMIOCHEMICAL COMPOSITIONS FOR THE PREVENTION OF HEMATOPHAGOUS DIPTERA INSECTS FROM LANDING AND BITING ANIMALS” (INSTITUTE DE RECHERCHE EN SEMIOCHIMIE ET ETHOLOGIE APPLIQUEE, priority 2015, published 2018).
